{"source": "ChEMBL document CHEMBL1152912", "about": "“Protective effects of a benzoxazine derivative against oxidized LDL-induced apoptosis and the increases of integrin beta4, ROS, NF-kappaB and P53 in human umbilical vein endothelial cells” (Bioorg Med Chem Lett, 2009)", "key": {"HUVEC [1]": {"system": "HUVEC", "assay": "Cytotoxicity against HUVEC cells assessed as reduction in low density lipoprotein-induced cell viability at 50 uM by MTT assay", "assay_type": "cell-based", "details": "human"}, "HUVEC [2]": {"system": "HUVEC", "assay": "Antiapoptotic activity against low density lipoprotein-induced apoptosis in HUVEC cells assessed as inhibition of integrin beta4 level at 50 uM by immunofluorescence technique", "assay_type": "functional, cell-based", "details": "Homo sapiens"}, "HUVEC [3]": {"system": "HUVEC", "assay": "Antiapoptotic activity against low density lipoprotein-induced apoptosis in HUVEC cells assessed as nuclear condensation after 24 hrs by acridin orange staining", "assay_type": "functional, cell-based", "details": "Homo sapiens"}, "HUVEC [4]": {"system": "HUVEC", "assay": "Antiapoptotic activity against low density lipoprotein-induced vascular apoptosis in HUVEC cells assessed as modulation of P53 level by lase scanning confocal microscope", "assay_type": "functional, cell-based", "details": "Homo sapiens"}, "HUVEC [5]": {"system": "HUVEC", "assay": "Antiapoptotic activity against low density lipoprotein-induced apoptosis in HUVEC cells assessed as apoptotic cell after 24 hrs by TUNEL assay", "assay_type": "functional, cell-based", "details": "Homo sapiens"}, "HUVEC [6]": {"system": "HUVEC", "assay": "Antiapoptotic activity against low density lipoprotein-induced vascular apoptosis in HUVEC cells assessed as inhibition of ROS by lase scanning confocal microscope", "assay_type": "functional, cell-based", "details": "Homo sapiens"}, "HUVEC [7]": {"system": "HUVEC", "assay": "Antiapoptotic activity against low density lipoprotein-induced vascular apoptosis in HUVEC cells assessed as translocation of NF-kappaB across the nucleus by lase scanning confocal microscope", "assay_type": "functional, cell-based", "details": "Homo sapiens"}, "HUVEC [8]": {"system": "HUVEC", "assay": "Antiapoptotic activity against low density lipoprotein-induced apoptosis in HUVEC cells assessed as nuclear fragmentation after 24 hrs by acridin orange staining", "assay_type": "functional, cell-based", "details": "Homo sapiens"}, "HUVEC [9]": {"system": "HUVEC", "assay": "Antiapoptotic activity against low density lipoprotein-induced apoptosis in HUVEC cells by Hoechst 33258 staining", "assay_type": "functional, cell-based", "details": "Homo sapiens"}, "HUVEC [10]": {"system": "HUVEC", "assay": "Antiapoptotic activity against low density lipoprotein-induced vascular apoptosis in HUVEC cells assessed as modulation of NF-kappaB level by lase scanning confocal microscope", "assay_type": "functional, cell-based", "details": "Homo sapiens"}}, "note": "Active and inactive are the calls of the source. The rule behind the calls is not given here."}
{"smiles": "Nc1ccc2c(c1)NC(CO)CO2", "note": "(stereo not given)", "values": [{"measurement": "Activity", "setting": "HUVEC [1]", "value": "Toxic"}, {"measurement": "Activity", "setting": "HUVEC [2]", "value": "Active"}, {"measurement": "Activity", "setting": "HUVEC [3]", "value": "Active"}, {"measurement": "Activity", "setting": "HUVEC [4]", "value": "Active"}, {"measurement": "Activity", "setting": "HUVEC [5]", "value": "Active"}, {"measurement": "Activity", "setting": "HUVEC [6]", "value": "Active"}, {"measurement": "Activity", "setting": "HUVEC [7]", "value": "Active"}, {"measurement": "Activity", "setting": "HUVEC [8]", "value": "Active"}, {"measurement": "Activity", "setting": "HUVEC [9]", "value": "Dose-dependent effect"}, {"measurement": "Activity", "setting": "HUVEC [10]", "value": "Active"}]}
